Test results from the supplement of paper PMC10307832.

Assays:
Assay in all cases: relative viability (nuclei count vs DMSO), 5 days (fraction); higher = more cells survive
NCI-H650 = tested on: NCI-H650
Procedure, shortened: (§1)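 Relative viability equals treated-well nuclei counts divided by vehicle-well nuclei counts. Counts came from 4× images of lung cancer cell lines grown in 1536-well plates for 5 days after pin-tool dosing on the day after seeding. Dosing used one drug alone or a fixed anchor-drug dose plus five library-drug doses (not always all listed) in √10 steps, and values are medians of duplicate plates.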

NCI-H2405 = tested on: NCI-H2405
Procedure, shortened: as §1

COR-L23 = tested on: COR-L23
Procedure, shortened: as §1

NCI-H520 = tested on: NCI-H520
Procedure, shortened: as §1

LU99A = tested on: LU99A
Procedure, shortened: as §1

NCI-H2085 = tested on: NCI-H2085
Procedure, shortened: as §1

H3255 = tested on: H3255
Procedure, shortened: as §1

SK-MES-1 = tested on: SK-MES-1
Procedure, shortened: as §1

NCI-H2087 = tested on: NCI-H2087
Procedure, shortened: as §1

HCC-44 = tested on: HCC-44
Procedure, shortened: as §1

NCI-H2023 = tested on: NCI-H2023
Procedure, shortened: as §1

NCI-H1651 = tested on: NCI-H1651
Procedure, shortened: as §1

NCI-H1563 = tested on: NCI-H1563
Procedure, shortened: as §1

ChaGo-K-1 = tested on: ChaGo-K-1
Procedure, shortened: as §1

NCI-H1944 = tested on: NCI-H1944
Procedure, shortened: as §1

HCC-827 = tested on: HCC-827
Procedure, shortened: as §1

LCLC-103H = tested on: LCLC-103H
Procedure, shortened: as §1

EMC-BAC-2 = tested on: EMC-BAC-2
Procedure, shortened: as §1

NCI-H838 = tested on: NCI-H838
Procedure, shortened: as §1

EPLC-272H = tested on: EPLC-272H
Procedure, shortened: as §1

CCN(CC)CCCCNc1ncc2cc(-c3cc(OC)cc(OC)c3)c(NC(=O)NC(C)(C)C)nc2n1 + C[C@@H](Oc1cc(-c2cnn(C3CCNCC3)c2)cnc1N)c1c(Cl)ccc(F)c1Cl [Crizotinib] (partner 1 µM)
relative viability (NCI-H650; first compound 0.01 µM): 0.694
relative viability (NCI-H650; first compound 0.03162 µM): 0.618
relative viability (NCI-H650; first compound 0.1 µM): 0.863
relative viability (NCI-H650; first compound 0.3162 µM): 0.743
relative viability (NCI-H650; first compound 1 µM): 0.606
relative viability (NCI-H2405; first compound 0.01 µM): 0.834
relative viability (NCI-H2405; first compound 0.03162 µM): 0.868
relative viability (NCI-H2405; first compound 0.1 µM): 0.893
relative viability (NCI-H2405; first compound 0.3162 µM): 0.873
relative viability (NCI-H2405; first compound 1 µM): 0.8
relative viability (COR-L23; first compound 0.01 µM): 0.697
relative viability (COR-L23; first compound 0.03162 µM): 0.656
relative viability (COR-L23; first compound 0.1 µM): 0.824
relative viability (COR-L23; first compound 0.3162 µM): 0.584
relative viability (COR-L23; first compound 1 µM): 0.759
relative viability (NCI-H520; first compound 0.01 µM): 0.901
relative viability (NCI-H520; first compound 0.03162 µM): 0.825
relative viability (NCI-H520; first compound 0.1 µM): 0.86
relative viability (NCI-H520; first compound 0.3162 µM): 0.61
relative viability (NCI-H520; first compound 1 µM): 0.297
relative viability (LU99A; first compound 0.01 µM): 0.547
relative viability (LU99A; first compound 0.03162 µM): 0.63
relative viability (LU99A; first compound 0.1 µM): 0.616
relative viability (LU99A; first compound 0.3162 µM): 0.583
relative viability (LU99A; first compound 1 µM): 0.484
relative viability (NCI-H2085; first compound 0.01 µM): 0.983
relative viability (NCI-H2085; first compound 0.03162 µM): 0.917
relative viability (NCI-H2085; first compound 0.1 µM): 0.943
relative viability (NCI-H2085; first compound 0.3162 µM): 0.895
relative viability (NCI-H2085; first compound 1 µM): 0.817
relative viability (H3255; first compound 0.01 µM): 0.936
relative viability (H3255; first compound 0.03162 µM): 0.885
relative viability (H3255; first compound 0.1 µM): 1.14
relative viability (H3255; first compound 0.3162 µM): 1.01
relative viability (H3255; first compound 1 µM): 0.843
relative viability (SK-MES-1; first compound 0.01 µM): 1.06
relative viability (SK-MES-1; first compound 0.03162 µM): 1.05
relative viability (SK-MES-1; first compound 0.1 µM): 1.14
relative viability (SK-MES-1; first compound 0.3162 µM): 1.03
relative viability (SK-MES-1; first compound 1 µM): 1.01
relative viability (NCI-H2087; first compound 0.01 µM): 0.925
relative viability (NCI-H2087; first compound 0.03162 µM): 0.967
relative viability (NCI-H2087; first compound 0.1 µM): 1.01
relative viability (NCI-H2087; first compound 0.3162 µM): 0.958
relative viability (NCI-H2087; first compound 1 µM): 1.06
relative viability (HCC-44; first compound 0.01 µM): 0.775
relative viability (HCC-44; first compound 0.03162 µM): 0.855
relative viability (HCC-44; first compound 0.1 µM): 0.853
relative viability (HCC-44; first compound 0.3162 µM): 0.971
relative viability (HCC-44; first compound 1 µM): 0.946
relative viability (NCI-H2023; first compound 0.01 µM): 0.646
relative viability (NCI-H2023; first compound 0.03162 µM): 0.627
relative viability (NCI-H2023; first compound 0.1 µM): 0.639
relative viability (NCI-H2023; first compound 0.3162 µM): 0.725
relative viability (NCI-H2023; first compound 1 µM): 0.655
relative viability (NCI-H1651; first compound 0.01 µM): 0.925
relative viability (NCI-H1651; first compound 0.03162 µM): 0.851
relative viability (NCI-H1651; first compound 0.1 µM): 0.945
relative viability (NCI-H1651; first compound 0.3162 µM): 0.909
relative viability (NCI-H1651; first compound 1 µM): 0.828
relative viability (NCI-H1563; first compound 0.01 µM): 0.86
relative viability (NCI-H1563; first compound 0.03162 µM): 0.836
relative viability (NCI-H1563; first compound 0.1 µM): 0.816
relative viability (NCI-H1563; first compound 0.3162 µM): 0.833
relative viability (NCI-H1563; first compound 1 µM): 0.623
relative viability (ChaGo-K-1; first compound 0.01 µM): 1.24
relative viability (ChaGo-K-1; first compound 0.03162 µM): 1.08
relative viability (ChaGo-K-1; first compound 0.1 µM): 1.09
relative viability (ChaGo-K-1; first compound 0.3162 µM): 1.32
relative viability (ChaGo-K-1; first compound 1 µM): 1.06
relative viability (NCI-H1944; first compound 0.01 µM): 1.29
relative viability (NCI-H1944; first compound 0.03162 µM): 1.14
relative viability (NCI-H1944; first compound 0.1 µM): 1.12
relative viability (NCI-H1944; first compound 0.3162 µM): 1.35
relative viability (NCI-H1944; first compound 1 µM): 1.09
relative viability (HCC-827; first compound 0.01 µM): 0.979
relative viability (HCC-827; first compound 0.03162 µM): 0.958
relative viability (HCC-827; first compound 0.1 µM): 0.968
relative viability (HCC-827; first compound 0.3162 µM): 0.966
relative viability (HCC-827; first compound 1 µM): 0.937
relative viability (LCLC-103H; first compound 0.01 µM): 1.11
relative viability (LCLC-103H; first compound 0.03162 µM): 1.04
relative viability (LCLC-103H; first compound 0.1 µM): 1.07
relative viability (LCLC-103H; first compound 0.3162 µM): 1.05
relative viability (LCLC-103H; first compound 1 µM): 1.05
relative viability (EMC-BAC-2; first compound 0.01 µM): 0.851
relative viability (EMC-BAC-2; first compound 0.03162 µM): 0.761
relative viability (EMC-BAC-2; first compound 0.1 µM): 0.85
relative viability (EMC-BAC-2; first compound 0.3162 µM): 0.839
relative viability (EMC-BAC-2; first compound 1 µM): 0.735
relative viability (NCI-H838; first compound 0.01 µM): 0.919
relative viability (NCI-H838; first compound 0.03162 µM): 0.84
relative viability (NCI-H838; first compound 0.1 µM): 0.955
relative viability (NCI-H838; first compound 0.3162 µM): 0.79
relative viability (NCI-H838; first compound 1 µM): 0.552
relative viability (EPLC-272H; first compound 0.01 µM): 1.23
relative viability (EPLC-272H; first compound 0.1 µM): 1.13
relative viability (EPLC-272H; first compound 0.3162 µM): 1.04
relative viability (EPLC-272H; first compound 1 µM): 0.917
